Assay results published in PubChem BioAssay AID192 (DTP/NCI, 2004).
Values joined by “and” are separate entries in the source; they are usually repeats but may differ in a detail not shown here. Equal entries are not always repeated. Inconclusive results and toxic doses are left out.

System: BDF1 mice, B16 melanoma ip, median survival T/C
Assay: NCI In Vivo Anticancer Drug Screen. Data for tumor model B16 Melanoma (intraperitoneal) in B6D2F1 (BDF1) mice
Settings: endpoint: median survival time, higher = longer survival
Method in brief: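 Tumor-bearing mice received test compound or vehicle. Survival or tumor size was then measured in both groups. The treated-group figure was divided by the control-group figure.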

[1] = dose: 6.25 mg/kg/injection, schedule: Q01DX009 (ip), vehicle: saline with Tween-80
[2] = dose: 12.5 mg/kg/injection, schedule: Q01DX009 (ip), vehicle: saline with Tween-80
[3] = dose: 25.0 mg/kg/injection, schedule: Q01DX009 (ip), vehicle: saline with Tween-80
[4] = dose: 100.0 mg/kg/injection, schedule: Q01DX009 (ip), vehicle: saline with Tween-80
[5] = dose: 200.0 mg/kg/injection, schedule: Q01DX009 (ip), vehicle: saline with Tween-80
[6] = dose: 400.0 mg/kg/injection, schedule: Q01DX009 (ip), vehicle: saline with Tween-80
[7] = dose: 50.0 mg/kg/injection, schedule: Q01DX009 (ip), vehicle: saline with Tween-80
[8] = dose: 18.75 mg/kg/injection, schedule: Q01DX009 (ip), vehicle: saline
[9] = dose: 37.5 mg/kg/injection, schedule: Q01DX009 (ip), vehicle: saline
[10] = dose: 75.0 mg/kg/injection, schedule: Q01DX009 (ip), vehicle: saline

## Nc1nnc[se]1
dose: 3.13 mg/kg/injection, schedule: Q01DX009 (ip), vehicle: saline with Tween-80
  T/C: 106 % of control
[1]
  T/C: 97 % of control
[2]
  T/C: 102 % of control
[3]
  T/C: 115 % of control

## COC(CCC#N)c1ccc(Cl)cc1 (stereo not drawn)
[4]
  T/C: 101 % of control
[5]
  T/C: 96 % of control
[6]
  T/C: 98 % of control

## COc1ccc(OC)c(C2N(Cc3ccccc3N(C)C)CCCN2Cc2ccccc2N(C)C)c1
[3]
  T/C: 102 % of control
[7]
  T/C: 93 % of control
[4]
  T/C: 90 % of control

## Cc1ncc([N+](=O)[O-])n1CCSC(N)=O
[2]
  T/C: 97 % of control and 99 % of control
[3]
  T/C: 95 % of control and 102 % of control
[7]
  T/C: 101 % of control
[4]
  T/C: 97 % of control and 101 % of control
[5]
  T/C: 91 % of control and 96 % of control
[6]
  T/C: 92 % of control

## C(=N\Nc1nn[nH]n1)/c1ccccc1
[2]
  T/C: 92 % of control
[3]
  T/C: 96 % of control
[7]
  T/C: 89 % of control
[4]
  T/C: 90 % of control

## CCN1C[C@]2(COC)[C@H](O)C[C@H](OC)[C@]34C1[C@H]([C@H](OC)[C@H]23)[C@]1(OC(C)=O)[C@H]2[C@@H](OC(=O)c3ccccc3)[C@](O)(C[C@H]24)[C@@H](OC)[C@@H]1O
dose: 15.0 micrograms/kg/injection, schedule: Q01DX009 (ip), vehicle: Klucel (hydroxypropylcellulose) (HPC)
  T/C: 92 % of control
dose: 60.0 micrograms/kg/injection, schedule: Q01DX009 (ip), vehicle: Klucel (hydroxypropylcellulose) (HPC)
  T/C: 89 % of control
dose: 120.0 micrograms/kg/injection, schedule: Q01DX009 (ip), vehicle: Klucel (hydroxypropylcellulose) (HPC)
  T/C: 94 % of control

## C[n+]1ccccc1/C=N/O
[8]
  T/C: 100 % of control
[9]
  T/C: 107 % of control
[10]
  T/C: 88 % of control and 106 % of control

## CCC(CCCN(CC)CCc1ccccc1)OC(=O)c1cc(OC)c(OC)c(OC)c1 (stereo not drawn)
dose: 4.68 mg/kg/injection, schedule: Q01DX009 (ip), vehicle: saline
  T/C: 104 % of control
dose: 9.37 mg/kg/injection, schedule: Q01DX009 (ip), vehicle: saline
  T/C: 108 % of control
[8]
  T/C: 103 % of control
[9]
  T/C: 100 % of control
[10]
  T/C: 91 % of control

## NCCCN=c1ccc2c3c1c(O)c1c(O)ccc(=O)c1c3[nH]n2CCNCCO
dose: 0.5 mg/kg/injection, schedule: Q01DX009 (ip), vehicle: water
  T/C: 158 % of control and 197 % of control
dose: 1.0 mg/kg/injection, schedule: Q01DX009 (ip), vehicle: water
  T/C: 187 % of control and 227 % of control
dose: 2.0 mg/kg/injection, schedule: Q01DX009 (ip), vehicle: water
  T/C: 216 % of control and 242 % of control
dose: 4.0 mg/kg/injection, schedule: Q01DX009 (ip), vehicle: water
  T/C: 216 % of control and 244 % of control
dose: 8.0 mg/kg/injection, schedule: Q01DX009 (ip), vehicle: water
  T/C: 216 % of control and 338 % of control
dose: 16.0 mg/kg/injection, schedule: Q01DX009 (ip), vehicle: water
  T/C: 158 % of control

## c1ccc2c(CC3=NCCN3)cccc2c1
[1]
  T/C: 102 % of control
[2]
  T/C: 100 % of control
[3]
  T/C: 102 % of control

## CC1=CC(=O)C(O)C2(C)C1CC(O)C13COC4(C)C(OC(=O)C41)C(O)C23 (stereo not drawn)
dose: 1.0 mg/kg/injection, schedule: Q01DX009 (ip), vehicle: saline with Tween-80
  T/C: 97 % of control
dose: 2.0 mg/kg/injection, schedule: Q01DX009 (ip), vehicle: saline with Tween-80
  T/C: 101 % of control
dose: 4.0 mg/kg/injection, schedule: Q01DX009 (ip), vehicle: saline with Tween-80
  T/C: 97 % of control

## CN1CCC(=C(C#N)C#N)CC1
dose: 3.13 mg/kg/injection, schedule: Q04DX003 (ip), vehicle: saline
  T/C: 105 % of control
dose: 6.25 mg/kg/injection, schedule: Q04DX003 (ip), vehicle: saline
  T/C: 94 % of control
dose: 12.5 mg/kg/injection, schedule: Q04DX003 (ip), vehicle: saline
  T/C: 110 % of control

## COc1ccc(N=NN(C(C)=O)c2ccccc2)cc1
dose: 100.0 mg/kg/injection, schedule: Q01DX009 (ip), vehicle: Klucel (hydroxypropylcellulose) (HPC)
  T/C: 102 % of control
dose: 200.0 mg/kg/injection, schedule: Q01DX009 (ip), vehicle: Klucel (hydroxypropylcellulose) (HPC)
  T/C: 102 % of control
